Assay results as given in US8338367B2, “Fused heteroaryl diamide compounds useful as MMP-13 inhibitors” (Boehringer Ingelheim International GmbH, priority 2008, dated 2012).

Biological target: MMP13 (Homo sapiens, UniProt P45452)
Assay: EnzoLyte 520 Generic MMP Assay Kit (FRET peptide substrate), MMP-13 inhibition
Type: biochemical
From the text: The EnzoLyte™ 520 Generic MMP Assay Kit (AnaSpec Inc.) can detect the activity of several MMPs including MMP-1, 2, 3, 7, 8, 9, 13, and 14. This kit uses a 5-FAM/QXL™ 520 fluorescence resonance energy transfer (FRET) peptide as an MMP substrate. In the intact FRET peptide, the fluorescence of 5-FAM is quenched by QXL™ 520. Upon cleavage into two separate fragments by MMPs, the fluorescence of 5-FAM is recovered, and can be monitored at excitation/emission wavelengths=490 nm/520 nm. The assays are performed in a convenient 96-well or 384-well microplate format.

IC50 [nM] | Structure (SMILES)
340 | CNC(=O)[C@@H](NC(=O)c1ccc(-c2ccc3cc(C(=O)N4CCOCC4)[nH]c3c2)o1)C1CCCCC1 [5-[2-(Morpholine-4-carbonyl)-1H-indol-6-yl]-furan-2-carboxylic acid ((S)-cyclohexyl-methylcarbamoyl-methyl)-amide]
65 | CNC(=O)[C@@H](NC(=O)c1ccc(-c2ccc3cc(C(=O)N4CC(C)OC(C)C4)[nH]c3c2)o1)C(C)C (stereo partly drawn) [5-[2-(2,6-Dimethyl-morpholine-4-carbonyl)-1H-indol-6-yl]-furan-2-carboxylic acid ((S)-2-methyl-1-methylcarbamoyl-propyl)-amide]
270 | CNC(=O)[C@@H](NC(=O)c1ccc(-c2ccc3nc[nH]c3c2)o1)C1CCCCC1 [5-(3H-Benzimidazol-5-yl)-furan-2-carboxylic acid ((S)-cyclohexyl-methylcarbamoyl-methyl)-amide]
34 | CNC(=O)[C@@H](NC(=O)c1ccc(-c2ccc3nc(Cc4ccncc4)[nH]c3c2)o1)C1CCCCC1 [5-(2-Pyridin-4-ylmethyl-3H-benzimidazol-5-yl)-furan-2-carboxylic acid ((S)-cyclohexyl-methylcarbamoyl-methyl)-amide]
200 | CNC(=O)[C@@H](NC(=O)c1ccc(-c2ccc3cc(C(=O)N4CCS(=O)(=O)CC4)[nH]c3c2)o1)C(C)C [5-[2-(1,1-Dioxo-λ^6-1-thiomorpholine-4-carbonyl)-1H-indol-6-yl]-furan-2-carboxylic acid ((S)-2-methyl-1-methylcarbamoyl-propyl)-amide]
300 | CNC(=O)[C@@H](NC(=O)c1ccc(-c2ccc3cc(C(=O)N4CCN(C)CC4)[nH]c3c2)o1)C(C)C [5-[2-(4-Methyl-piperazine-1-carbonyl)-1H-indol-6-yl]-furan-2-carboxylic acid ((S)-2-methyl-1-methylcarbamoyl-propyl)-amide]
415 | CNC(=O)[C@@H](NC(=O)c1ccc(-c2ccc3cc(C(=O)N4CCOCC4)[nH]c3c2)o1)C(C)C [5-[2-(Morpholine-4-carbonyl)-1H-indol-6-yl]-furan-2-carboxylic acid ((S)-2-methyl-1-methylcarbamoyl-propyl)-amide]
103 | CNC(=O)[C@@H](NC(=O)c1ccc(-c2cc3[nH]ccc3cn2)o1)C1CCCCC1 [5-(1H-Pyrrolo[3,2-c]pyridin-6-yl)-furan-2-carboxylic acid ((S)-cyclohexyl-methylcarbamoyl-methyl)-amide]
290 | CNC(=O)[C@@H](NC(=O)c1ccc(-c2ccc3cc[nH]c3c2)o1)C1CCCCC1 [5-(1H-Indol-6-yl)-furan-2-carboxylic acid ((S)-cyclohexyl-methylcarbamoyl-methyl)-amide]
